Source: the NIST ThermoML archive (doi:10.1016/j.jct.2008.01.008)
± gives the expanded uncertainty stated by the source.

Assay: xn = mol fraction of the nth substance listed
Details: 298.15 K, 101 kPa, Liquid; for viscosity: Capillary tube (Ostwald / Ubbelohde) method; for speed of sound: Sing-around technique in a fixed-path interferometer

COCC(C)OCC(C)OC (stereo not given) [2-methoxy-1-(2-methoxy-1-methylethoxy)propane] + CO
Details | mass density [kg/m3] | speed of sound [m/s] | viscosity [mPa·s]
x1 = 0.0146 | – | – | 0.567 ± 0.011
x1 = 0.023 | 799.44 ± 0.48 | 1116.2 ± 0.78 | –
x1 = 0.0467 | – | – | 0.6092 ± 0.011
x1 = 0.0705 | 820.052 ± 0.45 | 1138.4 ± 0.79 | –
x1 = 0.0738 | – | – | 0.644 ± 0.011
x1 = 0.1106 | – | – | 0.6831 ± 0.011
x1 = 0.1312 | 838.725 ± 0.41 | 1158.2 ± 0.79 | –
x1 = 0.1422 | – | – | 0.7112 ± 0.011
x1 = 0.1632 | 846.233 ± 0.4 | 1166.2 ± 0.79 | –
x1 = 0.1646 | – | – | 0.7327 ± 0.011
x1 = 0.1725 | – | – | 0.7378 ± 0.011
x1 = 0.1988 | – | – | 0.7576 ± 0.011
x1 = 0.2058 | – | – | 0.7648 ± 0.011
x1 = 0.2094 | 855.089 ± 0.39 | 1175.4 ± 0.8 | –
x1 = 0.2514 | 861.6 ± 0.38 | 1182 ± 0.8 | –
x1 = 0.2621 | – | – | 0.8031 ± 0.011
x1 = 0.3018 | 867.961 ± 0.37 | 1188.1 ± 0.8 | –
x1 = 0.3128 | – | – | 0.8321 ± 0.011
x1 = 0.3583 | – | – | 0.8527 ± 0.011
x1 = 0.3598 | 873.908 ± 0.36 | 1193.9 ± 0.8 | –
x1 = 0.4 | – | – | 0.871 ± 0.011
x1 = 0.4036 | 877.603 ± 0.35 | 1197.3 ± 0.8 | –
x1 = 0.4549 | 881.296 ± 0.35 | 1200.3 ± 0.8 | 0.8941 ± 0.011
x1 = 0.5022 | 884.189 ± 0.34 | 1202.6 ± 0.8 | –
x1 = 0.5123 | – | – | 0.9106 ± 0.011
x1 = 0.5449 | 886.449 ± 0.34 | 1204.3 ± 0.8 | –
x1 = 0.5474 | – | – | 0.9206 ± 0.011
x1 = 0.6169 | 889.615 ± 0.34 | 1206.2 ± 0.8 | –
x1 = 0.6261 | – | – | 0.9387 ± 0.012
x1 = 0.6494 | 890.83 ± 0.33 | 1206.8 ± 0.8 | –
x1 = 0.6802 | – | – | 0.9504 ± 0.012
x1 = 0.7083 | 892.78 ± 0.33 | 1207.7 ± 0.8 | –
x1 = 0.7319 | – | – | 0.9598 ± 0.012
x1 = 0.7557 | – | – | 0.9634 ± 0.012
x1 = 0.756 | 894.087 ± 0.33 | 1207.9 ± 0.8 | –
x1 = 0.7919 | – | – | 0.9682 ± 0.012
x1 = 0.8114 | 895.425 ± 0.33 | 1207.8 ± 0.8 | –
x1 = 0.8537 | 896.298 ± 0.33 | 1207.6 ± 0.8 | –
x1 = 0.8565 | – | – | 0.9775 ± 0.012
x1 = 0.9047 | 897.217 ± 0.33 | 1207 ± 0.8 | –
x1 = 0.9185 | – | – | 0.9855 ± 0.012
x1 = 0.9327 | – | – | 0.9862 ± 0.012
x1 = 0.9364 | 897.708 ± 0.32 | 1206.2 ± 0.8 | –
x1 = 0.9511 | 897.931 ± 0.32 | 1206.2 ± 0.8 | –
x1 = 0.9572 | – | – | 0.9881 ± 0.012
x1 = 0.974 | – | – | 0.9898 ± 0.012

COCC(C)OCC(C)OC (stereo not given) [2-methoxy-1-(2-methoxy-1-methylethoxy)propane] + CCCCCO
Details | mass density [kg/m3] | speed of sound [m/s] | viscosity [mPa·s]
x1 = 0.0005 | – | – | 3.49 ± 0.022
x1 = 0.0143 | 813.241 ± 0.45 | 1274.5 ± 0.83 | –
x1 = 0.0225 | – | – | 3.246 ± 0.021
x1 = 0.0441 | 817.684 ± 0.44 | 1272 ± 0.82 | –
x1 = 0.0499 | – | – | 2.986 ± 0.02
x1 = 0.0656 | – | – | 2.851 ± 0.019
x1 = 0.0946 | – | – | 2.627 ± 0.018
x1 = 0.1045 | 826.045 ± 0.43 | 1266.6 ± 0.82 | –
x1 = 0.1367 | – | – | 2.357 ± 0.017
x1 = 0.1523 | 832.101 ± 0.42 | 1262.4 ± 0.82 | –
x1 = 0.194 | – | – | 2.078 ± 0.016
x1 = 0.2149 | 839.509 ± 0.41 | 1257.2 ± 0.82 | –
x1 = 0.2414 | – | – | 1.891 ± 0.015
x1 = 0.2431 | 842.645 ± 0.41 | 1255 ± 0.82 | –
x1 = 0.2954 | – | – | 1.728 ± 0.014
x1 = 0.2986 | 848.553 ± 0.4 | 1250.7 ± 0.82 | –
x1 = 0.3419 | 852.922 ± 0.39 | 1247.5 ± 0.82 | –
x1 = 0.3597 | – | – | 1.574 ± 0.014
x1 = 0.374 | 856.019 ± 0.39 | 1245 ± 0.82 | –
x1 = 0.4018 | 858.624 ± 0.38 | 1243.2 ± 0.82 | –
x1 = 0.4152 | – | – | 1.464 ± 0.013
x1 = 0.4303 | – | – | 1.436 ± 0.013
x1 = 0.4549 | 863.364 ± 0.38 | 1239.5 ± 0.81 | –
x1 = 0.468 | – | – | 1.38 ± 0.013
x1 = 0.4941 | – | – | 1.345 ± 0.013
x1 = 0.5038 | 867.504 ± 0.37 | 1236.6 ± 0.81 | –
x1 = 0.5334 | 869.911 ± 0.36 | 1234.7 ± 0.81 | –
x1 = 0.5552 | – | – | 1.274 ± 0.013
x1 = 0.591 | – | – | 1.23 ± 0.013
x1 = 0.6034 | 875.242 ± 0.36 | 1230.3 ± 0.81 | –
x1 = 0.6553 | 878.913 ± 0.35 | 1226.5 ± 0.81 | –
x1 = 0.6625 | – | – | 1.169 ± 0.012
x1 = 0.6968 | 881.667 ± 0.35 | 1224 ± 0.81 | –
x1 = 0.709 | – | – | 1.137 ± 0.012
x1 = 0.7445 | – | – | 1.112 ± 0.012
x1 = 0.7505 | 885.025 ± 0.34 | 1221.2 ± 0.81 | –
x1 = 0.796 | – | – | 1.079 ± 0.012
x1 = 0.7962 | 887.727 ± 0.34 | 1218.6 ± 0.81 | –
x1 = 0.8509 | 890.774 ± 0.34 | 1215.1 ± 0.81 | –
x1 = 0.8555 | – | – | 1.054 ± 0.012
x1 = 0.9071 | 893.759 ± 0.33 | 1211 ± 0.81 | –
x1 = 0.9258 | – | – | 1.02 ± 0.012
x1 = 0.9476 | 895.868 ± 0.33 | 1208.7 ± 0.81 | –
x1 = 0.96 | 896.501 ± 0.33 | 1207.8 ± 0.8 | –
x1 = 0.9803 | – | – | 0.9997 ± 0.012

COCC(C)OCC(C)OC (stereo not given) [2-methoxy-1-(2-methoxy-1-methylethoxy)propane] + CCCCCCCO
Details | mass density [kg/m3] | speed of sound [m/s] | viscosity [mPa·s]
x1 = 0.0148 | – | – | 5.604 ± 0.033
x1 = 0.0292 | – | – | 5.348 ± 0.032
x1 = 0.0609 | 825.134 ± 0.43 | 1317.8 ± 0.84 | –
x1 = 0.0718 | – | – | 4.664 ± 0.028
x1 = 0.1164 | 830.66 ± 0.42 | 1309.7 ± 0.84 | –
x1 = 0.1196 | – | – | 4.033 ± 0.025
x1 = 0.157 | 834.553 ± 0.42 | 1303 ± 0.83 | –
x1 = 0.1575 | – | – | 3.611 ± 0.023
x1 = 0.1902 | – | – | 3.294 ± 0.021
x1 = 0.2117 | 839.681 ± 0.41 | 1295.5 ± 0.83 | –
x1 = 0.2555 | – | – | 3.016 ± 0.3
x1 = 0.259 | 843.957 ± 0.4 | 1289.2 ± 0.83 | –
x1 = 0.2613 | – | – | 2.766 ± 0.022
x1 = 0.3119 | – | – | 2.468 ± 0.017
x1 = 0.3132 | 848.706 ± 0.4 | 1281.7 ± 0.83 | –
x1 = 0.3539 | 852.157 ± 0.39 | 1276.4 ± 0.83 | –
x1 = 0.3616 | – | – | 2.235 ± 0.016
x1 = 0.406 | 856.458 ± 0.39 | 1270.5 ± 0.82 | –
x1 = 0.4129 | – | – | 2.031 ± 0.015
x1 = 0.4366 | – | – | 1.949 ± 0.015
x1 = 0.4532 | – | – | 1.895 ± 0.015
x1 = 0.4533 | 860.298 ± 0.38 | 1264.9 ± 0.82 | –
x1 = 0.5056 | 864.403 ± 0.37 | 1258.8 ± 0.82 | –
x1 = 0.511 | – | – | 1.736 ± 0.014
x1 = 0.5326 | – | – | 1.673 ± 0.014
x1 = 0.552 | 867.948 ± 0.37 | 1253.6 ± 0.82 | –
x1 = 0.5897 | – | – | 1.543 ± 0.014
x1 = 0.5935 | 871.045 ± 0.36 | 1249.2 ± 0.82 | –
x1 = 0.6316 | 873.865 ± 0.36 | 1245.4 ± 0.82 | –
x1 = 0.6424 | – | – | 1.432 ± 0.013
x1 = 0.7111 | – | – | 1.309 ± 0.013
x1 = 0.7137 | 879.729 ± 0.35 | 1236.2 ± 0.81 | –
x1 = 0.7457 | – | – | 1.25 ± 0.013
x1 = 0.7666 | 883.415 ± 0.34 | 1231 ± 0.81 | –
x1 = 0.7977 | – | – | 1.178 ± 0.012
x1 = 0.8059 | 886.098 ± 0.34 | 1226.6 ± 0.81 | –
x1 = 0.8495 | 889.001 ± 0.34 | 1222.1 ± 0.81 | –
x1 = 0.8531 | – | – | 1.117 ± 0.012
x1 = 0.8927 | – | – | 1.079 ± 0.012
x1 = 0.9026 | 892.554 ± 0.33 | 1216.1 ± 0.81 | –
x1 = 0.9293 | 894.156 ± 0.33 | 1213 ± 0.81 | –
x1 = 0.9421 | – | – | 1.041 ± 0.012
x1 = 0.9527 | 895.635 ± 0.33 | 1210.7 ± 0.81 | –
x1 = 0.9678 | – | – | 1.02 ± 0.012
x1 = 0.9935 | – | – | 0.9994 ± 0.012
